{"source": "paper PMC8426237", "about": "“A first-in-human phase I study of TAS0728, an oral covalent binding inhibitor of HER2, in patients with advanced solid tumors with HER2 or HER3 aberrations” (Investigational New Drugs, 2021)", "key": {"[1]": {"system": "xenograft models of tumors with acquired resistance to trastuzumab/pertuzumab or to T-DM1", "parameters": "method as in PMID 32248641", "settings": "cited from earlier work"}, "[2]": {"experiment": "Plasma pharmacokinetics after single and multiple oral doses", "type": "in vivo, human", "description": "Multiple blood samples were collected on day 1 of cycles 1 and 2 (i.e., pre-dose, post-dose at +0.5 h, +1 h, +1.5 h, +2 h, +3 h, +4 h, +6 h, +8 h, +12 h) for analysis of plasma PK after administration of single and multiple doses respectively; urine samples were collected 0–3 h prior to morning dose and 0–12 h post-morning dose on day 1 of cycle 1.\nContinuous data were summarized with frequency, median, range, mean, standard deviation and standard error if relevant. Categorical data were presented as frequencies and percentages. 95% confidence intervals (CI) were calculated following the exact method. A p value <0.05 was considered statistically significant. Data were analyzed using the SAS® system software version 9.3 for Windows® (Statistical Analysis System, Cary, NC, USA). The PK data were analyzed using Phoenix WinNonlin (Version 6.4 or later, Certara L.P; Princeton New Jersey, United States). All analyses were descriptive and exploratory; no formal statistical testing was conducted."}, "[3]": {"system": "advanced solid tumors with HER2 or HER3 aberrations", "experiment": "Antitumor activity, objective tumor assessment by RECIST1.1", "type": "in vivo, human", "source_text": "Objective tumor assessments were made according to the revised response evaluation criteria in solid tumors [RECIST1.1] [8] from evaluation of magnetic resonance imaging (MRI)/computed tomography (CT) scans made at screening (baseline) and after every 2 cycles during the first 6 months of treatment with TAS0728, and after every 3 cycles of treatment thereafter."}, "[4]": {"parameters": "method as in PMID 30787176", "settings": "efficacious doses in mouse models; cited from earlier work"}, "[5]": {"settings": "human, in vivo", "protocol": "A DLT was defined as a study treatment-related adverse event (TRAE), according to the Common Terminology Criteria for Adverse Events (CTCAE, Version 5.0), with qualifying criteria for certain DLTs (e.g., Grade ≥ 3 diarrhea, was included as a DLT only if lasting >48 h and unresponsive to intensive antidiarrheal medication).\nPatients were closely monitored for these potential toxicities during the current study. Safety assessments included recording of AEs and serious AEs (SAEs) from the time of signing the study informed consent form to 30 days after the last dose of study medication. Safety parameters including laboratory evaluations (hematology, coagulation, chemistry, and urinalysis), vital sign measurements and body weight, electrocardiogram (ECG) recordings, ECOG performance status, echocardiogram or multi-gated acquisition (MUGA), and physical examination were assessed at screening, during the study and at 30 days following the last dose. The use of concomitant medications was permitted and details for such medications were recorded."}, "[6]": {"settings": "planned dose 50 mg, cycle 1, day 1, mean, n 3"}, "[7]": {"settings": "planned dose 50 mg, cycle 1, day 1, n 3"}, "[8]": {"settings": "planned dose 100 mg, cycle 1, day 1, mean, n 3"}, "[9]": {"settings": "planned dose 100 mg, cycle 1, day 1, n 3"}, "[10]": {"settings": "planned dose 100 mg, cycle 2, day 1, mean, n 2"}, "[11]": {"settings": "planned dose 100 mg, cycle 2, day 1, mean, n 3"}, "[12]": {"settings": "planned dose 100 mg, cycle 2, day 1, n 3"}, "[13]": {"settings": "planned dose 150 mg, cycle 1, day 1, mean, n 5"}, "[14]": {"settings": "planned dose 150 mg, cycle 1, day 1, mean, n 6"}, "[15]": {"settings": "planned dose 150 mg, cycle 1, day 1, n 6"}, "[16]": {"settings": "planned dose 150 mg, cycle 2, day 1, mean, n 2"}, "[17]": {"settings": "planned dose 150 mg, cycle 2, day 1, n 2"}, "[18]": {"settings": "planned dose 200 mg, cycle 1, day 1, mean, n 6"}, "[19]": {"settings": "planned dose 200 mg, cycle 1, day 1, mean, n 7"}, "[20]": {"settings": "planned dose 200 mg, cycle 1, day 1, n 7"}, "[21]": {"settings": "planned dose 200 mg, cycle 2, day 1, mean, n 2"}, "[22]": {"settings": "planned dose 200 mg, cycle 2, day 1, n 2"}}}
{"smiles": "C=CC(=O)N1CCC[C@@H](n2nc(C(=O)Nc3ccc(CC(=O)N(C)C)c(C)c3C)c3c(N)ncnc32)C1", "note": "[TAS0728]", "values": [{"measurement": "Anti-tumor effect", "setting": "[1]", "value": "significant anti-tumor effects"}, {"measurement": "Accumulation of TAS0728 exposure", "setting": "[2]; BID multiple-dose administration", "value": "No significant accumulation"}, {"measurement": "t1/2", "setting": "[2]; cycle 1, day 1, all dose levels", "value": "approximately 2.0 h"}, {"measurement": "AUC0–12", "setting": "[2]; [6]", "value": 2437, "unit": "ng·h/mL"}, {"measurement": "AUCinf", "setting": "[2]; [6]", "value": 2470, "unit": "ng·h/mL"}, {"measurement": "AUClast", "setting": "[2]; [6]", "value": 2415, "unit": "ng·h/mL"}, {"measurement": "Cmax", "setting": "[2]; [6]", "value": 1162, "unit": "ng/mL"}, {"measurement": "t1/2", "setting": "[2]; [6]", "value": 1.96, "unit": "h"}, {"measurement": "Tmax maximum", "setting": "[2]; [7]", "value": 1.58, "unit": "h"}, {"measurement": "Tmax median", "setting": "[2]; [7]", "value": 0.50, "unit": "h"}, {"measurement": "Tmax minimum", "setting": "[2]; [7]", "value": 0.50, "unit": "h"}, {"measurement": "AUC0–12", "setting": "[2]; [8]", "value": 5669, "unit": "ng·h/mL"}, {"measurement": "AUCinf", "setting": "[2]; [8]", "value": 5765, "unit": "ng·h/mL"}, {"measurement": "AUClast", "setting": "[2]; [8]", "value": 5626, "unit": "ng·h/mL"}, {"measurement": "Cmax", "setting": "[2]; [8]", "value": 2039, "unit": "ng/mL"}, {"measurement": "t1/2", "setting": "[2]; [8]", "value": 1.90, "unit": "h"}, {"measurement": "Tmax maximum", "setting": "[2]; [9]", "value": 3.05, "unit": "h"}, {"measurement": "Tmax median", "setting": "[2]; [9]", "value": 0.58, "unit": "h"}, {"measurement": "Tmax minimum", "setting": "[2]; [9]", "value": 0.53, "unit": "h"}, {"measurement": "AUC0–12", "setting": "[2]; [10]", "value": 5475, "unit": "ng·h/mL"}, {"measurement": "R(AUC0–12), observed accumulation ratio of AUC0–12", "setting": "[2]; [10]", "value": 0.87}, {"measurement": "t1/2", "setting": "[2]; [10]", "value": 2.17, "unit": "h"}, {"measurement": "AUClast", "setting": "[2]; [11]", "value": 4276, "unit": "ng·h/mL"}, {"measurement": "Cmax", "setting": "[2]; [11]", "value": 1389, "unit": "ng/mL"}, {"measurement": "R (Cmax), observed accumulation ratio of Cmax", "setting": "[2]; [11]", "value": 0.56}, {"measurement": "Tmax maximum", "setting": "[2]; [12]", "value": 6.20, "unit": "h"}, {"measurement": "Tmax median", "setting": "[2]; [12]", "value": 3.03, "unit": "h"}, {"measurement": "Tmax minimum", "setting": "[2]; [12]", "value": 0.92, "unit": "h"}, {"measurement": "AUC0–12", "setting": "[2]; [13]", "value": "12,946 hr*ng/mL"}, {"measurement": "AUCinf", "setting": "[2]; [13]", "value": "13,158 hr*ng/mL"}, {"measurement": "t1/2", "setting": "[2]; [13]", "value": 1.91, "unit": "h"}, {"measurement": "AUClast", "setting": "[2]; [14]", "value": "19,523 hr*ng/mL"}, {"measurement": "Cmax", "setting": "[2]; [14]", "value": 5402, "unit": "ng/mL"}, {"measurement": "Tmax maximum", "setting": "[2]; [15]", "value": 1.05, "unit": "h"}, {"measurement": "Tmax median", "setting": "[2]; [15]", "value": 0.59, "unit": "h"}, {"measurement": "Tmax minimum", "setting": "[2]; [15]", "value": 0.50, "unit": "h"}, {"measurement": "AUC0–12", "setting": "[2]; [16]", "value": "14,782 hr*ng/mL"}, {"measurement": "AUClast", "setting": "[2]; [16]", "value": "14,782 hr*ng/mL"}, {"measurement": "Cmax", "setting": "[2]; [16]", "value": 3460, "unit": "ng/mL"}, {"measurement": "R (Cmax), observed accumulation ratio of Cmax", "setting": "[2]; [16]", "value": 0.91}, {"measurement": "R(AUC0–12), observed accumulation ratio of AUC0–12", "setting": "[2]; [16]", "value": 1.61}, {"measurement": "t1/2", "setting": "[2]; [16]", "value": 3.11, "unit": "h"}, {"measurement": "Tmax maximum", "setting": "[2]; [17]", "value": 1.58, "unit": "h"}, {"measurement": "Tmax median", "setting": "[2]; [17]", "value": 1.30, "unit": "h"}, {"measurement": "Tmax minimum", "setting": "[2]; [17]", "value": 1.02, "unit": "h"}, {"measurement": "AUC0–12", "setting": "[2]; [18]", "value": "14,653 hr*ng/mL"}, {"measurement": "AUCinf", "setting": "[2]; [18]", "value": "15,046 hr*ng/mL"}, {"measurement": "t1/2", "setting": "[2]; [18]", "value": 2.05, "unit": "h"}, {"measurement": "AUClast", "setting": "[2]; [19]", "value": "15,108 hr*ng/mL"}, {"measurement": "Cmax", "setting": "[2]; [19]", "value": 5091, "unit": "ng/mL"}, {"measurement": "Tmax maximum", "setting": "[2]; [20]", "value": 3.92, "unit": "h"}, {"measurement": "Tmax median", "setting": "[2]; [20]", "value": 1.00, "unit": "h"}, {"measurement": "Tmax minimum", "setting": "[2]; [20]", "value": 0.45, "unit": "h"}, {"measurement": "AUC0–12", "setting": "[2]; [21]", "value": "11,459 hr*ng/mL"}, {"measurement": "AUClast", "setting": "[2]; [21]", "value": "11,248 hr*ng/mL"}, {"measurement": "Cmax", "setting": "[2]; [21]", "value": 2565, "unit": "ng/mL"}, {"measurement": "R (Cmax), observed accumulation ratio of Cmax", "setting": "[2]; [21]", "value": 0.96}, {"measurement": "R(AUC0–12), observed accumulation ratio of AUC0–12", "setting": "[2]; [21]", "value": 1.18}, {"measurement": "t1/2", "setting": "[2]; [21]", "value": 3.13, "unit": "h"}, {"measurement": "Tmax maximum", "setting": "[2]; [22]", "value": 3.25, "unit": "h"}, {"measurement": "Tmax median", "setting": "[2]; [22]", "value": 1.88, "unit": "h"}, {"measurement": "Tmax minimum", "setting": "[2]; [22]", "value": 0.52, "unit": "h"}, {"measurement": "Time on treatment before disease progression, patient with PR (BTC, HER2 amplification)", "setting": "[3]; 200 mg BID, no dose adjustment", "value": 136, "unit": "days"}, {"measurement": "Patients with disease control (best overall tumor response of PR or SD)", "setting": "[3]; all dose levels", "value": 10}, {"measurement": "Objective responses (PR)", "setting": "[3]; of 19 treated patients, NSCLC with HER2 mutation at 50 mg BID, BTC with HER2 amplification at 200 mg BID", "value": "two"}, {"measurement": "Diarrhea during treatment", "setting": "[4]", "value": "did not induce diarrhea"}, {"measurement": "Patients with urinary tract infection", "setting": "[5]", "value": 28.6, "unit": "%"}]}
